Data taken from US11434242B2, “Dopamine-b-hydroxylase inhibitors” (BIAL-PORTELA & Cª, S.A., priority 2017, dated 2022).

Target: T1, Dopamine beta hydroxylase (Homo sapiens, UniProt P09172)
T1 construct: 125 μl of plasma; tissue Instituto Português do Sangue Transplantação; host or cells: human plasma from healthy donors
T1 sequence (P09172 40-617 limits assumed): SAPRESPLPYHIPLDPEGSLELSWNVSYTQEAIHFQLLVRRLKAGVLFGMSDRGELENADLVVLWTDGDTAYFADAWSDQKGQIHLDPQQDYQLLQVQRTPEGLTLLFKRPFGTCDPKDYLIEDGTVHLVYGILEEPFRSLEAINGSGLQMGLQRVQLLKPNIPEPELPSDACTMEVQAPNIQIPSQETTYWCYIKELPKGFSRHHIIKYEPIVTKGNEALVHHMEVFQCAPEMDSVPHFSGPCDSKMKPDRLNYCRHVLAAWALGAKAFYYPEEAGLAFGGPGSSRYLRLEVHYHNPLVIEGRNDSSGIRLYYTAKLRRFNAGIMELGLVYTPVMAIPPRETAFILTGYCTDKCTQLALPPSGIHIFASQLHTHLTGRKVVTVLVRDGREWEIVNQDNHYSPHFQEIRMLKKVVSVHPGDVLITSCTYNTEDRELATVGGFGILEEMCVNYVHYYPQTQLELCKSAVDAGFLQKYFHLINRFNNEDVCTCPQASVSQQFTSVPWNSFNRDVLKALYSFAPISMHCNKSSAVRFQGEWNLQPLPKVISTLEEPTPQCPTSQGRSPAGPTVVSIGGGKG
Assay: Dopamine beta hydroxylase activity in human plasma
Format: biochemical
Conditions: for Plasma (0.01 μM), activity in % of control: inhibitor 0.01 μM; for Plasma (0.1 μM), activity in % of control: inhibitor 0.1 μM; for Plasma (1 μM), activity in % of control: inhibitor 1 μM
Method in brief: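 Healthy-donor human plasma pre-incubated 10 min at 37° C with compound at final 10, 100 or 1000 nM in pH 5.0 acetate buffer with ascorbate, fumarate, pargyline, N-ethylmaleimide, catalase and copper sulfate. Tyramine substrate then added for 45 min; octopamine formed was isolated by SCX cartridge, periodate-converted and read at 330 nm; activity given as % control.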

| Plasma (0.01 μM), activity in % of control | Plasma (0.1 μM), activity in % of control | Plasma (1 μM), activity in % of control | Structure (SMILES) |
| --- | --- | --- | --- |
| 89.8 % of control | 50.5 % of control |  | CN(CCO)C(=O)Cc1[nH]c(=S)n2c1C[C@H](c1c(F)ccc(Br)c1F)C2 [Example 131, (R)-2-(6-(3-bromo-2,6-difluorophenyl)-3-thioxo-2,5,6,7-tetrahydro-3H-pyrrolo[1,2-c]imidazol-1-yl)-N-(2-hydroxyethyl)-N-methylacetamide] |
| 45.6 % of control | 5.3 % of control |  | Cn1c(CC(=O)Nc2ncco2)c2n(c1=S)C[C@H](c1c(F)ccc(Cl)c1F)C2 [Example 317, (S)-2-(6-(3-chloro-2,6-difluorophenyl)-2-methyl-3-thioxo-2,5,6,7-tetrahydro-3H-pyrrolo[1,2-c]imidazol-1-yl)-N-(oxazol-2-yl)acetamide] |
| 86.8 % of control | 54.9 % of control |  | CN(CCc1[nH]c(=S)n2c1C[C@@H](c1c(F)ccc(Cl)c1F)C2)C(=O)N1CCCC1 [Example 227, (S)—N-(2-(6-(3-chloro-2,6-difluorophenyl)-3-thioxo-2,5,6,7-tetrahydro-3H-pyrrolo[1,2-c]imidazol-1-yl)ethyl)-N-methylpyrrolidine-1-carboxamide] |
|  | 67.7 % of control | 16.7 % of control | N[C@@H](CNC(=O)Cc1[nH]c(=S)n2c1C[C@H](c1c(F)c(F)cc(F)c1F)C2)C(=O)O [Example 31, (S)-2-amino-3-(2-((R)-6-(2,3,5,6-tetrafluorophenyl)-3-thioxo-3,5,6,7-tetrahydro-2H-pyrrolo[1,2-c]imidazol-1-yl)acetamido)propanoic acid] |
|  | 20.1 % of control | 0.2 % of control | O=C(Cc1[nH]c(=S)n2c1[C@@H]1C[C@]1(c1cc(Br)ccc1F)C2)NCC1CC1 [Example 143, 2-((5aS,6aR)-5a-(5-bromo-2-fluorophenyl)-3-thioxo-2,3,5,5a,6,6a-hexahydrocyclopropa[3,4]pyrrolo[1,2-c]imidazol-1-yl)-N-(cyclopropylmethyl)acetamide] |
| 44.3 % of control | 6.8 % of control |  | O=C(Cc1[nH]c(=S)n2c1C[C@@H](c1c(F)ccc(Br)c1F)C2)N1CCS(=O)(=O)CC1 [Example 136, (S)-2-(6-(3-bromo-2,6-difluorophenyl)-3-thioxo-2,5,6,7-tetrahydro-3H-pyrrolo[1,2-c]imidazol-1-yl)-1-(1,1-dioxidothiomorpholino)ethan-1-one] |
| 62.7 % of control | 6.1 % of control |  | Cn1c(CC(=O)NC2COC2)c2n(c1=S)C[C@@]1(c3cc(Br)ccc3F)C[C@@H]21 [Example 437, 2-((5aS,6aR)-5a-(5-bromo-2-fluorophenyl)-2-methyl-3-thioxo-2,3,5,5a,6,6a-hexahydrocyclopropa[3,4]pyrrolo[1,2-c]imidazol-1-yl)-N-(oxetan-3-yl)acetamide] |
|  | 33.9 % of control | 4.1 % of control | Cl.O=C(Cc1[nH]c(=S)n2c1C[C@@H](c1c(F)ccc(Cl)c1F)C2)NCCc1ccccn1 [Example 106, (S)-2-(6-(3-chloro-2,6-difluorophenyl)-3-thioxo-2,5,6,7-tetrahydro-3H-pyrrolo[1,2-c]imidazol-1-yl)-N-(2-(pyridin-2-yl)ethyl)acetamide hydrochloride] |
| 14.8 % of control | 2.4 % of control |  | CN(C(=O)Cc1[nH]c(=S)n2c1C[C@@H](c1c(F)ccc(Cl)c1F)C2)C1CCS(=O)(=O)CC1 [Example 163, (S)-2-(6-(3-chloro-2,6-difluorophenyl)-3-thioxo-2,5,6,7-tetrahydro-3H-pyrrolo[1,2-c]imidazol-1-yl)-N-(1,1-dioxidotetrahydro-2H-thiopyran-4-yl)-N-methylacetamide] |
| 83.5 % of control | 28.2 % of control |  | Cn1c(CC(=O)NCC(F)(F)F)c2n(c1=S)C[C@@]1(c3cc(Br)ccc3F)C[C@@H]21 [Example 298, 2-((5aS,6aR)-5a-(5-bromo-2-fluorophenyl)-2-methyl-3-thioxo-2,3,5,5a,6,6a-hexahydrocyclopropa[3,4]pyrrolo[1,2-c]imidazol-1-yl)-N-(2,2,2-trifluoroethyl)acetamide] |
| 89.2 % of control | 49.0 % of control |  | CS(=O)(=O)CCNC(=O)Cc1[nH]c(=S)n2c1C[C@H](c1c(F)ccc(Br)c1F)C2 [Example 118, (R)-2-(6-(3-bromo-2,6-difluorophenyl)-3-thioxo-2,5,6,7-tetrahydro-3H-pyrrolo[1,2-c]imidazol-1-yl)-N-(2-(methylsulfonyl)ethyl)acetamide] |
| 95.9 % of control | 82.4 % of control |  | CC(C)NC(=O)Cc1[nH]c(=S)n2c1C[C@H](c1c(F)ccc(Br)c1F)C2 [Example 133, (R)-2-(6-(3-bromo-2,6-difluorophenyl)-3-thioxo-2,5,6,7-tetrahydro-3H-pyrrolo[1,2-c]imidazol-1-yl)-N-isopropylacetamide] |
|  | 53.1 % of control | 11.7 % of control | O=C(Cc1[nH]c(=S)n2c1C[C@H](c1c(F)c(F)cc(F)c1F)C2)N1CCC[C@H]1CO [Example 98, 1-((S)-2-(hydroxymethyl)pyrrolidin-1-yl)-2-((R)-6-(2,3,5,6-tetrafluorophenyl)-3-thioxo-2,5,6,7-tetrahydro-3H-pyrrolo[1,2-c]imidazol-1-yl)ethan-1-one] |
|  | 57.0 % of control | 11.9 % of control | CN(C)CCCNC(=O)Cc1[nH]c(=S)n2c1C[C@H](c1c(F)c(F)cc(F)c1F)C2.Cl [Example 71, (R)—N-(3-(dimethylamino)propyl)-2-(6-(2,3,5,6-tetrafluorophenyl)-3-thioxo-2,5,6,7-tetrahydro-3H-pyrrolo[1,2-c]imidazol-1-yl)acetamide Hydrochloride] |
| 73.8 % of control | 3.4 % of control |  | Cn1c(CC(=O)Nc2ncco2)c2n(c1=S)C[C@@H](c1c(F)ccc(F)c1F)C2 [Example 286, (R)-2-(2-methyl-3-thioxo-6-(2,3,6-trifluorophenyl)-2,5,6,7-tetrahydro-3H-pyrrolo[1,2-c]imidazol-1-yl)-N-(oxazol-2-yl)acetamide] |
| 66.8 % of control | 15.5 % of control |  | Cl.Cn1c(CC(=O)Nc2ccncc2)c2n(c1=S)C[C@H](c1c(F)ccc(Cl)c1F)C2 [Example 287, (S)-2-(6-(3-chloro-2,6-difluorophenyl)-2-methyl-3-thioxo-2,5,6,7-tetrahydro-3H-pyrrolo[1,2-c]imidazol-1-yl)-N-(pyridin-4-yl)acetamide Hydrochloride] |
| 68.1 % of control | 19.3 % of control |  | Cn1c(CC(=O)N[C@H]2CCOC2)c2n(c1=S)C[C@H](c1c(F)ccc(Cl)c1F)C2 [Example 385, 2-((S)-6-(3-chloro-2,6-difluorophenyl)-2-methyl-3-thioxo-2,5,6,7-tetrahydro-3H-pyrrolo[1,2-c]imidazol-1-yl)-N—((S)-tetrahydrofuran-3-yl)acetamide] |
|  | 37.2 % of control | 3.3 % of control | O=C(Cc1[nH]c(=S)n2c1C[C@@H](c1c(F)ccc(Br)c1F)C2)N1CCCC1 [Example 101, (S)-2-(6-(3-bromo-2,6-difluorophenyl)-3-thioxo-2,5,6,7-tetrahydro-3H-pyrrolo[1,2-c]imidazol-1-yl)-1-(pyrrolidin-1-yl)ethan-1-one] |
|  | 47.5 % of control | 0.8 % of control | O=C(Cc1[nH]c(=S)n2c1C[C@@H](c1c(F)ccc(Br)c1F)C2)NC1CC1 [Example 94, (S)-2-(6-(3-bromo-2,6-difluorophenyl)-3-thioxo-2,5,6,7-tetrahydro-3H-pyrrolo[1,2-c]imidazol-1-yl)-N-cyclopropylacetamide] |
| 37.8 % of control | 5.8 % of control |  | CN(C(=O)Cc1c2n(c(=S)n1C)C[C@H](c1c(F)ccc(Cl)c1F)C2)C1COC1 [Example 429, (S)-2-(6-(3-chloro-2,6-difluorophenyl)-2-methyl-3-thioxo-2,5,6,7-tetrahydro-3H-pyrrolo[1,2-c]imidazol-1-yl)-N-methyl-N-(oxetan-3-yl)acetamide] |

| Structure (SMILES) | Plasma (0.01 μM), activity in % of control | Plasma (0.1 μM), activity in % of control | Plasma (1 μM), activity in % of control |
| --- | --- | --- | --- |
| Cc1noc(Cc2[nH]c(=S)n3c2C[C@@H](c2c(F)ccc(Cl)c2F)C3)n1 [Example 228, (S)-6-(3-chloro-2,6-difluorophenyl)-1-((3-methyl-1,2,4-oxadiazol-5-yl)methyl)-6,7-dihydro-2H-pyrrolo[1,2-c]imidazole-3(5H)-thione] | 90.2 % of control | 56.0 % of control |  |
